Measurements from US10968203B2, “Pyrimidinyl-pyridyloxy-naphthyl compounds and methods of treating IRE1-related diseases and disorders” (Genentech, Inc., priority 2017, dated 2021).
Counter-ions that a name gives are not always drawn.

What follows are compounds tested on XBP1s-luc 293 LUC (assay: cellular PD assay, XBP1s-LUC reporter (Example 903)). Settings: Table 1; read-out: XBP1s-luc 293 LUC (IC50).
Assay type: cell-based
In short: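 Cellular IRE1α pathway activity was quantified from the luciferase signal of an XBP1-Luc reporter, where the luciferase fusion is in frame and expressed only from the spliced XBP1 transcript.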
For `Cc1ccc2c(NC(=O)C3CC3)cccc2c1Oc1ncccc1-c1ccnc(N[C@H]2CCCNC2)n1` [Example 337, (S)—N-(6-Methyl-5-((3-(2-(piperidin-3-ylamino)pyrimidin-4-yl)pyridin-2-yl)oxy)naphthalen-1-yl)cyclopropanecarboxamide hydrochloride], the IC50 was 84.2 nM.
`Cc1ccc2c(NS(=O)(=O)CC(F)(F)F)c(F)ccc2c1Oc1ncccc1-c1ccnc(N[C@H]2CCCNC2)n1` [Example 362, (S)-2,2,2-Trifluoro-N-(2-fluoro-6-methyl-5-((3-(2-(piperidin-3-ylamino)pyrimidin-4-yl)pyridin-2-yl)oxy)naphthalen-1-yl)ethanesulfonamide] gave an IC50 of 23.4 nM.
Compound `Cc1ccc2c(NC(=O)c3cn(C)cn3)cccc2c1Oc1ncccc1-c1ccnc(N[C@H]2CCCNC2)n1` [Example 176, (S)-1-Methyl-N-(6-methyl-5-((3-(2-(piperidin-3-ylamino)pyrimidin-4-yl)pyridin-2-yl)oxy)naphthalen-1-yl)-1H-imidazole-4-carboxamide] has an IC50 of 368 nM.
In the case of `CCCS(=O)(=O)Nc1cccc2c(Oc3ncc(Br)cc3-c3ccnc(N[C@H]4CCCNC4)n3)c(C)ccc12` [Example 336, (S)-N-(5-((5-Bromo-3-(2-(piperidin-3-ylamino)pyrimidin-4-yl)pyridin-2-yl)oxy)-6-methylnaphthalen-1-yl)propane-1-sulfonamide], the IC50 is reported as 540 nM.
In the case of `Cc1nc(CNc2cccc3c(Oc4ncccc4-c4ccnc(N[C@@H]5CNC[C@H](C)C5)n4)c(C)ccc23)cs1` [Example 323, 4-(2-((2-Methyl-5-(((2-methylthiazol-4-yl)methyl)amino)naphthalen-1-yl)oxy)pyridin-3-yl)-N-((3S,5R)-5-methylpiperidin-3-yl)pyrimidin-2-amine], the IC50 is reported as 88.9 nM.
`Cc1ccc2c(NC(=O)C3CC3C(F)(F)F)cccc2c1Oc1ncccc1-c1ccnc(N[C@H]2CCCNC2)n1` (single isomer, unassigned) [Example 227] showed an IC50 of 493 nM.
`Cc1ccc2c(NC(=O)Cc3ccccc3F)cccc2c1Oc1ncccc1-c1ccnc(N[C@H]2CCCNC2)n1` [Example 177, (S)-2-(2-Fluorophenyl)-N-(6-methyl-5-((3-(2-(piperidin-3-ylamino)pyrimidin-4-yl)pyridin-2-yl)oxy)naphthalen-1-yl)acetamide] was tested, and the IC50 was 108 nM.
With `Cc1ccc2c(N3CCC(C)(C)C3=O)cccc2c1Oc1ncccc1-c1ccnc(N[C@H]2CCCNC2)n1` [Example 238, (S)-3,3-Dimethyl-1-(6-methyl-5-((3-(2-(piperidin-3-ylamino)pyrimidin-4-yl)pyridin-2-yl)oxy)naphthalen-1-yl)pyrrolidin-2-one] the IC50 was 275 nM.
Compound `CCCS(=O)(=O)Nc1cc(C)c(Oc2ncccc2-c2ccnc(N[C@H]3CCCNC3)n2)c2ccccc12` [Example 164, (S)—N-(3-Methyl-4-((3-(2-(piperidin-3-ylamino)pyrimidin-4-yl)pyridin-2-yl)oxy)naphthalen-1-yl)propane-1-sulfonamide] has an IC50 of 147 nM.
With `Cc1ccc2c(NCC3CC3)cccc2c1Oc1ncccc1-c1ccnc(N[C@H]2CCCNC2)n1` [Example 223, (S)-4-(2-((5-((Cyclopropylmethyl)amino)-2-methylnaphthalen-1-yl)oxy)pyridin-3-yl)-N-(piperidin-3-yl)pyrimidin-2-amine] the IC50 was 212 nM.
With `Cc1ccc2c(NC(C)c3cscn3)cccc2c1Oc1ncccc1-c1ccnc(N[C@H]2CCCNC2)n1` (single isomer, unassigned) [Example 295] the IC50 was 209 nM.
For `Cc1ccc2c(NC(=O)C3CC34CCOC4)cccc2c1Oc1ncccc1-c1ccnc(N[C@H]2CCCNC2)n1` (mixture of isomers) [Example 289, N-(6-Methyl-5-((3-(2-(((S)-piperidin-3-yl)amino)pyrimidin-4-yl)pyridin-2-yl)oxy)naphthalen-1-yl)-5-oxaspiro[2.4]heptane-1-carboxamide], the IC50 was 431 nM.
`Cc1ccc2c(NS(=O)(=O)C3CCC3)cccc2c1Oc1ncccc1-c1ccnc(N[C@H]2CCCNC2)n1` [Example 107, (S)—N-(6-Methyl-5-((3-(2-(piperidin-3-ylamino)pyrimidin-4-yl)pyridin-2-yl)oxy)naphthalen-1-yl)cyclobutanesulfonamide hydrochloride] showed an IC50 of 252 nM.
With `Cc1ccc2c(NC(=O)C3CCCC3)cccc2c1Oc1ncccc1-c1ccnc(N[C@H]2CCCNC2)n1` [Example 187, (S)—N-(6-Methyl-5-((3-(2-(piperidin-3-ylamino)pyrimidin-4-yl)pyridin-2-yl)oxy)naphthalen-1-yl)cyclopentanecarboxamide] the IC50 was 157 nM.
Compound `Cc1ccc2c(NS(=O)(=O)Cc3ccccc3C(F)(F)F)c(F)ccc2c1Oc1ncccc1-c1ccnc(N[C@H]2CCCNC2)n1` [Example 392, (S)—N-(2-Fluoro-6-methyl-5-((3-(2-(piperidin-3-ylamino)pyrimidin-4-yl)pyridin-2-yl)oxy)naphthalen-1-yl)-1-(2-(trifluoromethyl)phenyl)methanesulfonamide] has an IC50 of 6.32 nM.
`Cc1ccc2c(NS(=O)(=O)CC(C)(C)C)c(F)ccc2c1Oc1ncccc1-c1ccnc(N[C@H]2CCCNC2)n1` [Example 350, (S)—N-(2-Fluoro-6-methyl-5-((3-(2-(piperidin-3-ylamino)pyrimidin-4-yl)pyridin-2-yl)oxy)naphthalen-1-yl)-2,2-dimethylpropane-1-sulfonamide] gave an IC50 of 37.4 nM.
Work on `Cc1nc(Nc2cccc3c(Oc4ncccc4-c4ccnc(N[C@H]5CCCNC5)n4)c(C)ccc23)cs1` [Example 192, (S)-2-Methyl-N-(6-methyl-5-((3-(2-(piperidin-3-ylamino)pyrimidin-4-yl)pyridin-2-yl)oxy)naphthalen-1-yl)thiazol-4-amine] yielded an IC50 of 444 nM.
Compound `Cc1ccc2c(NS(=O)(=O)Cc3cccc(F)c3F)c(F)ccc2c1Oc1ncccc1-c1ccnc(N[C@H]2CCCNC2)n1` [Example 189, (S)-1-(2,3-Difluorophenyl)-N-(2-fluoro-6-methyl-5-((3-(2-(piperidin-3-ylamino)pyrimidin-4-yl)pyridin-2-yl)oxy)naphthalen-1-yl)methanesulfonamide] has an IC50 of 5.07 nM.
In the case of `Cc1ccc2c(N3CCC(C)S3(=O)=O)cccc2c1Oc1ncccc1-c1ccnc(N[C@H]2CCCNC2)n1` (mixture of isomers) [Example 245, 5-Methyl-2-(6-methyl-5-((3-(2-((S)-piperidin-3-ylamino)pyrimidin-4-yl)pyridin-2-yl)oxy)naphthalen-1-yl)isothiazolidine 1,1-dioxide], the IC50 is reported as 294 nM.
Work on `Cc1nc(CNc2cccc3c(Oc4ncccc4-c4ccnc(N[C@H]5CCCNC5)n4)c(C)ccc23)cs1` [Example 244, (S)-4-(2-((2-Methyl-5-(((2-methylthiazol-4-yl)methyl)amino)naphthalen-1-yl)oxy)pyridin-3-yl)-N-(piperidin-3-yl)pyrimidin-2-amine] yielded an IC50 of 12 nM.

Same assay, conditions: Table 2; read-out: XBP1s-luc 293 LUC (IC50)
Compound `Cc1ccc2c(NS(=O)(=O)CCC(F)(F)F)cccc2c1Oc1ncccc1-c1ccnc(N[C@@H]2CNC[C@H](C)C2)n1` [Example 481, 3,3,3-Trifluoro-N-(6-methyl-5-((3-(2-(((3S,5R)-5-methylpiperidin-3-yl)amino)pyrimidin-4-yl)pyridin-2-yl)oxy)naphthalen-1-yl)propane-1-sulfonamide] has an IC50 of 70 nM.
In the case of `Cc1ccc2c(NS(=O)(=O)Cc3noc4ccccc34)c(F)ccc2c1Oc1ncccc1-c1ccnc(N[C@H]2CCCNC2)n1` [Example 443, (S)-1-(Benzo[d]isoxazol-3-yl)-N-(2-fluoro-6-methyl-5-((3-(2-(piperidin-3-ylamino)pyrimidin-4-yl)pyridin-2-yl)oxy)naphthalen-1-yl)methanesulfonamide hydrochloride], the IC50 is reported as 8 nM.
With `Cc1ccc2c(NS(=O)(=O)C=C3CCC3)c(F)ccc2c1Oc1ncccc1-c1ccnc(N[C@H]2CCCNC2)n1` [Example 413, 1-Cyclobutylidene-N-[2-fluoro-6-methyl-5-[[3-[2-[[(3S)-3-piperidyl]amino]pyrimidin-4-yl]-2-pyridyl]oxy]-1-naphthyl]methanesulfonamide hydrochloride] the IC50 was 50 nM.
Work on `Cc1nc(CS(=O)(=O)Nc2c(F)ccc3c(Oc4ncccc4-c4ccnc(N[C@@H]5CNC[C@@H](F)C5)n4)c(C)ccc23)cs1` (single isomer, unassigned) [Example 490, hydrochloride] yielded an IC50 of 4 nM.
For `Cc1ccc2c(N[C@H]3CCCC[C@@H]3O)cccc2c1Oc1ncccc1-c1ccnc(N[C@H]2CCCNC2)n1` (single isomer, unassigned) [Example 447, hydrochloride], the IC50 was 146 nM.
`CCC(C)CS(=O)(=O)Nc1c(F)ccc2c(Oc3ncccc3-c3ccnc(N[C@H]4CCCNC4)n3)c(C)ccc12` (mixture of isomers) [Example 409, N-(2-Fluoro-6-methyl-5-((3-(2-(((S)-piperidin-3-yl)amino)pyrimidin-4-yl)pyridin-2-yl)oxy)naphthalen-1-yl)-2-methylbutane-1-sulfonamide] showed an IC50 of 25 nM.
Work on `Cc1ccc2c(NC[C@@H](C#N)C(C)C)cccc2c1Oc1ncccc1-c1ccnc(N[C@H]2CCCNC2)n1` [Example 423, (S)-3-Methyl-2-(((6-methyl-5-((3-(2-(((S)-piperidin-3-yl)amino)pyrimidin-4-yl)pyridin-2-yl)oxy)naphthalen-1-yl)amino)methyl) butanenitrile] yielded an IC50 of 207 nM.
`Cc1ccc2c(NS(=O)(=O)CC3(F)CC3)c(F)ccc2c1Oc1ncccc1-c1ccnc(N[C@H]2CCCNC2)n1` [Example 453, (S)—N-(2-Fluoro-6-methyl-5-((3-(2-(piperidin-3-ylamino)pyrimidin-4-yl)pyridin-2-yl)oxy)naphthalen-1-yl)-1-(1-fluorocyclopropyl)methanesulfonamide hydrochloride] was tested, and the IC50 was 18 nM.
`Cc1ccc2c(NS(=O)(=O)Cc3cccc(C#N)c3)c(F)ccc2c1Oc1ncccc1-c1ccnc(N[C@H]2CCCNC2)n1` [Example 425, (S)-1-(3-Cyanophenyl)-N-(2-fluoro-6-methyl-5-((3-(2-(piperidin-3-ylamino)pyrimidin-4-yl)pyridin-2-yl)oxy)naphthalen-1-yl)methanesulfonamide hydrochloride] showed an IC50 of 16 nM.
